Measured values published in patent publication US20160128990A1, “METHODS OF USING RIFAXIMIN IN POSITION EMISSION TOMOGRAPHY (PET) SCANS” (Salix Pharmaceuticals, Ltd, priority 2013, published 2016).

What was measured:
Type in all cases: in vivo, human
[1] = system: physiologic FDG uptake in the intestinal tract; assay: PET-CT scan study of intestinal FDG uptake after rifaximin pre-treatment (Example 1)
Experimental: (§1) This example relates to a study to determine whether an oral antibiotic, rifaximin, administered prior to PET-CT scan can reduce physiologic FDG uptake in the intestinal tract. Thirty (30) patients scheduled for clinically-indicated PET-CT scans were enrolled to receive rifaximin 550 mg twice daily (BID) for two days prior to their scans. Each patient had their prior scheduled PET-CT used as control; that is, their prior PET-CT scan was evaluated as a pre-treatment baseline for intestinal FDG uptake (paired controls). The PET-CT scans of a randomly-selected cohort of 90 patients also scheduled for clinically-indicated PET-CT during the same time period were also used as controls (independent controls). All images were stripped of identifying data, and SUVMax (maximum-pixel-value standardized uptake value) and SUVAvg (average standardized uptake value) for all scans were measured by a radiologist blinded to treatment/control status and normalized to liver SUV, which was selected as the reference for normal tissue activity. A qualitative score of colonic uptake (0-4) was also assessed. Statistical analysis was performed by comparing mean SUV cecum/liver by paired t-test (pre & post) or unpaired t-test (treated & controls).

[2] = system: physiologic FDG uptake in the intestinal tract; assay: PET-CT scan studies of intestinal FDG uptake with other rifaximin regimens (Examples 2-6)
Experimental: Patients scheduled for clinically-indicated PET-CT scan are administered rifaximin 550 mg twice daily (BID) for five days prior to their scans. Each patient has their prior scheduled PET-CT used as control; that is, their prior PET-CT scan is evaluated as a pre-treatment baseline for intestinal FDG uptake (paired controls). The PET-CT scans of a randomly-selected cohort of patients also scheduled for clinically-indicated PET-CT during the same time period are used as independent controls. Cecal SUVMax (maximum-pixel-value standardized uptake value) and SUVAvg (average standardized uptake value) for all scans are measured by a radiologist blinded to treatment/control status and normalized to liver SUV, which is selected as the reference for normal tissue activity. A qualitative score of colonic uptake (0-4) is also assessed. Statistical analysis was performed by comparing mean SUV cecum/liver by paired t-test (pre & post) or unpaired t-test (treated & controls). The effect of rifaximin on a global measure of colonic SUV is also measured. Patients scheduled for clinically-indicated PET-CT scan are administered rifaximin 550 mg twice daily (BID) for seven days prior to their scans. Each patient has their prior scheduled PET-CT used as control; that is, their prior PET-CT scan is evaluated as a pre-treatment baseline for intestinal FDG uptake (paired controls). The PET-CT scans of a randomly-selected cohort of patients also scheduled for clinically-indicated PET-CT during the same time period are used as independent controls. Cecal SUVMax (maximum-pixel-value standardized uptake value) and SUVAvg (average standardized uptake value) for all scans are measured by a radiologist blinded to treatment/control status and normalized to liver SUV, which is selected as the reference for normal tissue activity. A qualitative score of colonic uptake (0-4) is also assessed. Statistical analysis was performed by comparing mean SUV cecum/liver by paired t-test (pre & post) or unpaired t-test (treated & controls). The effect of rifaximin on a global measure of colonic SUV is also measured. Patients scheduled for clinically-indicated PET-CT scan are administered rifaximin 550 mg twice daily (BID) for between 48 hours to five days prior to their scans. Each patient has their prior scheduled PET-CT used as control; that is, their prior PET-CT scan is evaluated as a pre-treatment baseline for intestinal FDG uptake (paired controls). […] Cecal SUVMax (maximum-pixel-value standardized uptake value) and SUVAvg (average standardized uptake value) for all scans are measured by a radiologist blinded to treatment/control status and normalized to liver SUV, which is selected as the reference for normal tissue activity. A qualitative score of colonic uptake (0-4) is also assessed. […] The effect of rifaximin on a global measure of colonic SUV is also measured. […] Each patient has their prior scheduled PET-CT used as control; that is, their prior PET-CT scan is evaluated as a pre-treatment baseline for intestinal FDG uptake (paired controls). […] Cecal SUVMax (maximum-pixel-value standardized uptake value) and SUVAvg (average standardized uptake value) for all scans are measured by a radiologist blinded to treatment/control status and normalized to liver SUV, which is selected as the reference for normal tissue activity. A qualitative score of colonic uptake (0-4) is also assessed. […]

[3] = Adverse events in the rifaximin-treated group (Example 1); settings: rifaximin 550 mg BID for two days, 30 patients
Experimental: as §1

In the case of `CO[C@H]1/C=C/O[C@@]2(C)Oc3c(C)c(O)c4c(O)c(c5c(nc6cc(C)ccn65)c4c3C2=O)NC(=O)/C(C)=C\C=C\[C@H](C)[C@H](O)[C@@H](C)[C@@H](O)[C@@H](C)[C@H](OC(C)=O)[C@@H]1C` [rifaximin, (2S,16Z,18E,20S,21S,22R, 23R,24R,25S,26S,27S,28E)-5,6,21,23,25 Pentahydroxy-27-methoxy-2,4,11,16,20,22,24,26-octamethyl-2,7-(epoxypentadeca-(1,11,13)trienimino)benzofuro(4,5-e)pyrido(1,2,-a)benzimidazole-1,15(2H)-dione,25-acetate], the “OR for overall colonic SUV score <1” value [1] is reported as 3.8, the “patients with no major change in cecal SUVmax/liver ratio after rifaximin” value [1] is reported as 14% and the “scans with overall colonic SUV score <1” value [1] is reported as 53%. For the same molecule, the “difference (reduction) in cecal SUVmax / FDG activity in the cecum between pre- and post-rifaximin images” value ([1]; 550 mg BID for two days, paired pre-rifaximin scans, p=0.002) was 26%, the “mean cecal SUVMax in patients whose SUVMax was >2 in their prior scan” value ([1]; 550 mg, 48 h) was 3.4 and the “cecal SUVmax levels in patients with high baseline levels” value ([1]; after 2 days of rifaximin pre-treatment) was “significantly lower levels”. For the same molecule, the “patients with higher cecal SUVmax/liver ratio post-rifaximin” value ([1]; patients (n=27) with cecal SUVmax/liver ratio >2 in pre-rifaximin scans, 2/27) was 7%, the “patients with lower cecal SUVmax/liver ratio after rifaximin” value ([1]; patients (n=27) with cecal SUVmax/liver ratio >2 in pre-rifaximin scans, 21/27, p=0.0005) was 78% and the “patients with down-grading of FDG signal intensity (overall colonic SUV signal)” value ([1]; patients with an initial high cecal SUVMax, FIG. 4) was 80%. For the same molecule, the “Normalized (mean) cecal SUVAvg” value ([1]; post-rifaximin scan, 550 mg BID two days, 2.0 without rifaximin, p=0.02 paired t-test) was 1.6, the “Mean colon SUVmax” value ([1]; post-rifaximin scan, 550 mg BID two days, pre-rifaximin 4.0, p=0.7) was 3.8 and the “distribution of overall colonic SUV grades” value ([1]; post-rifaximin scans, score 0-4 by blinded reader, FIG. 4) was “left-shift in the distribution of colonic SUV grades from higher to lower grades”. For the same molecule, the “mean cecal SUVMax, rifaximin-treated patients vs random control scans” value ([1]; random control scans mean 4.2, no significant difference, p=0.2 unpaired t-test) was 3.4, the “FDG uptake compared to pre-rifaximin scan” value ([1]; rifaximin for 2 days prior to PET-CT scans) was “significant reduction” and the “qualitative score of whole colonic uptake (0-4), mean” value ([1]; rifaximin pre-treated group, reduced from 2.3, p=0.07) was 1.8. For the same molecule, the “overall percentage of patients with grade of colonic FDG intensity >1” value ([1]; with rifaximin compared to without rifaximin, FIG. 4) was “lower”, the “FDG uptake compared to pre-rifaximin scan” value ([2]; Example 2: 550 mg BID for five days prior to PET-CT scans) was “significant reduction” and the “FDG uptake compared to pre-rifaximin scan” value ([2]; Example 3: 550 mg BID for seven days prior to PET-CT scans) was “significant reduction”. The “FDG uptake compared to pre-rifaximin scan” value ([2]; Example 4: 550 mg BID for between 48 hours to 5 days prior to PET-CT scans) was “significant reduction”, the “FDG uptake compared to pre-rifaximin scan” value ([2]; Example 5: 1100 mg per day for 48 hours to seven days prior to PET-CT scans) was “significant reduction” and the “FDG uptake compared to pre-rifaximin scan” value ([2]; Example 6: solid dispersion with about 10 mg to about 100 mg rifaximin, once per day up to TID, 48 hours to seven days prior to PET-CT scans) was “significant reduction”. The adverse events [3] was “No adverse events were reported”.
